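Protocol summary: plate cells (96-well), add compound at 5 concentrations, incubate 48 h, interpolate endpoints linearly. GI50: concentration for 50% inhibition of growth.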 Activity calls are given as the source filed them. Cut-off read from the data, not from the text of the source: active = GI50 up to about 1.1 µM and inactive = higher.
Assays:
Test in all cases: NCI tumour cell line growth inhibition, 48 h
[1] = system: A498
[2] = system: HCT-116
[3] = system: SNB-19
[4] = system: SK-MEL-28
[5] = system: U-251
[6] = system: SF-539
[7] = system: OVCAR-3
[8] = system: UACC-62
[9] = system: SN12C
[10] = system: SW-620
[11] = system: COLO 205
[12] = system: 786-0
[13] = system: HOP-62
[14] = system: TK-10
[15] = system: SNB-75
[16] = system: SR
[17] = system: NCI-H522
[18] = system: RXF 393

Measured: GI50

CCOC(=O)Nc1ccc(S(=O)(=O)OC)cc1.CCOC(=O)Nc1ccc(S(=O)(=O)OC)cc1.NNC(=O)c1ccncc1
inactive: [1] > 50 µM | [2] 14.3 µM | [3] > 50 µM | [4] > 50 µM | [5] 11.1 µM | [6] > 50 µM | [7] > 50 µM | [8] > 50 µM | [9] > 50 µM | [10] 12.1 µM | [11] > 50 µM | [12] > 50 µM | [13] > 50 µM | [14] > 50 µM | [15] > 50 µM

c1ccc2c3c([nH]c2c1)C1C2CCCCN2C(c2ccncc2)N1CC3 (configuration not stated)
inactive: [2] 35 µM | [3] 25.4 µM | [4] 39.9 µM | [5] 39.9 µM | [6] 58.3 µM | [16] 33.9 µM | [17] 39.2 µM | [7] 44.1 µM | [8] 36.5 µM | [9] 39.1 µM | [10] 33.5 µM | [18] 29.3 µM | [11] 35 µM | [12] 63.4 µM | [13] 52.5 µM | [15] 22.8 µM

O=C(c1ccc(Cl)cc1)N(C(=S)N1CCN(c2ccccc2)CC1)C1CCCCC1
inactive: [2] 45.7 µM | [3] > 100 µM | [4] > 100 µM | [5] > 100 µM | [6] > 100 µM | [16] 67.6 µM | [17] > 100 µM | [7] > 100 µM | [8] > 100 µM | [9] > 100 µM | [10] > 100 µM | [18] > 100 µM | [11] > 100 µM | [12] > 100 µM | [13] > 100 µM | [14] > 100 µM | [15] 85.3 µM

CC1(C(=O)Nc2ccc3cc4ccccc4cc3c2)CC2(C)CC(C)(C1)C(O)NC2=O (configuration not stated)
inactive: [1] > 100 µM | [2] > 100 µM | [4] > 100 µM | [5] > 100 µM | [6] > 100 µM | [16] 23.6 µM | [7] 70 µM | [8] > 100 µM | [9] > 100 µM | [10] > 100 µM | [18] > 100 µM | [11] 41.6 µM | [12] > 100 µM | [13] > 100 µM | [14] 63 µM | [15] > 100 µM

CC1=NN(c2ccccc2)C(=O)C1/N=N/c1ccc(Br)cc1C (configuration not stated)
inactive: [1] 57 µM | [2] 81.3 µM | [3] 85.9 µM | [4] > 100 µM | [5] 38.3 µM | [6] 58.9 µM | [7] > 100 µM | [8] > 100 µM | [9] > 100 µM | [10] > 100 µM | [18] 50.5 µM | [11] > 100 µM | [12] 82.2 µM | [13] 27.9 µM | [14] 39.4 µM | [15] 19.1 µM

N#Cc1ccccc1NC(=O)/C(=N\Nc1ccc([N+](=O)[O-])cc1)C1C(=O)NC(=O)NC1=O
inactive: [1] > 100 µM | [2] > 100 µM | [3] > 100 µM | [4] > 100 µM | [5] > 100 µM | [6] > 100 µM | [17] 92.3 µM | [7] > 100 µM | [8] > 100 µM | [10] > 100 µM | [18] > 100 µM | [11] > 100 µM | [12] > 100 µM | [13] > 100 µM | [14] > 100 µM | [15] > 100 µM

COc1ccc(/C=C(\C(C)=O)C(=O)Nc2ccccc2)cc1
inactive: [2] > 100 µM | [3] > 100 µM | [4] > 100 µM | [5] > 100 µM | [6] > 100 µM | [16] > 100 µM | [17] > 100 µM | [7] > 100 µM | [8] > 100 µM | [9] > 100 µM | [10] > 100 µM | [18] > 100 µM | [12] > 100 µM | [13] > 100 µM | [14] > 100 µM

O=C(C(=O)n1ncc(Cl)c(Cl)c1=O)n1ncc(Cl)c(Cl)c1=O
inactive: [1] > 100 µM | [2] 15.8 µM | [3] > 100 µM | [4] 25.3 µM | [5] 35.7 µM | [6] 28.8 µM | [17] 10.7 µM | [7] 27.1 µM | [8] 15.1 µM | [9] 24.4 µM | [10] 19.4 µM | [18] > 10 µM | [11] 13.9 µM | [12] 19.5 µM | [13] > 100 µM | [14] 27.4 µM | [15] 40.8 µM

COc1ccc(C/C(=N/O)C(=O)NCCc2cc(Br)c(OCCCN(C)C)c(Br)c2)cc1Br [APLYSAMINE 2]
inactive: [2] 14.5 µM | [3] 16.3 µM | [4] 17.7 µM | [5] 17.7 µM | [6] 13.6 µM | [17] 16.4 µM | [7] 21.6 µM | [9] 18.5 µM | [10] 16.6 µM | [18] 21.6 µM | [11] 18.8 µM | [12] 20 µM | [13] 15.8 µM | [14] 29.8 µM | [15] 18.9 µM

CN(C)c1ccc(C2CC(=O)C(C#N)=C(c3ccccc3)NN2C)cc1 (configuration not stated)
inactive: [1] 27.6 µM | [2] 11.5 µM | [3] 12.1 µM | [4] > 100 µM | [5] 15.5 µM | [16] 14.1 µM | [17] 3.56 µM | [9] 13.6 µM | [10] 3.97 µM | [18] 25.2 µM | [12] 8.73 µM | [13] 12.8 µM | [14] > 100 µM | [15] 2.05 µM

CC(C)c1ccc(O)c(Cc2cc(C(C)C)cc(Cc3cc(C(C)C)ccc3O)c2O)c1
inactive: [1] 1.46 µM | [2] 1.78 µM | [3] 1.65 µM | [4] 1.73 µM | [5] 1.69 µM | [16] 1.88 µM | [17] 1.57 µM | [7] 1.65 µM | [8] 2.38 µM | [9] 1.77 µM | [10] 1.72 µM | [11] 3.32 µM | [12] 1.7 µM | [13] 1.69 µM | [14] 1.93 µM | [15] 2.16 µM

COc1ccc(NC(=O)C(=O)c2c(O)c3ccc(O)cc3oc2=O)c([N+](=O)[O-])c1
inactive: [1] > 100 µM | [2] > 100 µM | [3] > 100 µM | [4] > 100 µM | [6] > 100 µM | [17] > 100 µM | [7] > 100 µM | [8] > 100 µM | [10] > 100 µM | [18] > 100 µM | [11] > 100 µM | [12] > 100 µM | [14] > 100 µM | [15] > 100 µM
